Assay results published in patent US20110195505A1, “BACTERIAL STRAINS FOR BUTANOL PRODUCTION” (priority 2009, published 2011).
Where “and” joins values, the source holds several entries; their conditions need not be identical. Equal values may be shown once.

Columns and labels:
[1] = tested on: L. plantarum strain PN0512; experiment: Growth yield (OD600) in isobutanol, stearic acid fed and unfed cultures; format: cell-based, Lactobacillus plantarum; conditions: no fatty acid fed, 25 hours, 30° C.
Protocol: For growth yield experiments, 5 ml of medium with test fatty acids (10-500 mg per liter) and varying concentrations of isobutanol in 15 ml screw cap tubes was inoculated with 12.5 μl of the working stock giving an initial OD600 of 0.012. The caps were tightly sealed and incubated at 30° C. on a roller drum for 20 to 26 hours, at which time 1.0 ml was removed and OD600 was measured with a blank of medium amended with the fatty acid. All solvent concentrations are reported as % (w/v).
Growth of L. plantarum cultures in the media described in General Methods and containing varying concentrations of isobutanol was measured and compared with the cultures fed (supplemented with) stearic acid at a final concentration of 50 mg per liter of medium. Cultures were prepared as described in General Methods.

[2] = tested on: BP63 (ΔfabZ1); experiment: Shake flask growth rate of BP63 with isobutanol and oleic acid; format: cell-based, L. plantarum
Protocol: Four sets of conditions were prepared. For the first set, 20 mg/l oleic acid was added and isobutanol was added to 0, 1, 1.5, 2 and 2.5% final concentration. In the second set of flasks, 30 mg/L of oleic acid was added to the medium and the following final isobutanol concentrations were used: 0, 1, 1.5, 2, 2.5, and 3% w/v. The third and fourth set of the shake flask cultures were done at oleic acid concentrations of 50 and 55 mg/L. These flasks were placed in a shaking water bath at 30° C. at 80 RPM. Samples were taken at 2, 3, 4, and 5 hrs and the OD600 was measured.

[3] = tested on: BP63 (ΔfabZ1); experiment: Growth of BP63 in the presence of isobutanol and oleic acid; format: cell-based, L. plantarum; conditions: for Growth (OD600) of BP63 (ΔfabZ1): 18 hours, 30° C.
Protocol: The purpose of these experiments was to see if the requirement for oleic acid changed in the presence of isobutanol. Semi-synthetic LAB medium, pH6, supplemented with 75 μg/mL uracil, 2.5 μg/mL hematin was used along with a series of varying concentrations of isobutanol and oleic acid. Oleic was added to the final concentrations of 0, 10, 20, 30, 40, and 50 mg/L. Isobutanol was added to the final concentrations of 0, 1.0, 1.5, 2.0, 2.5, and 3% (w/v). 2.5 mL of media was inoculated with […] of the BP63 working stock. The cultures were incubated at 30° C. without shaking for 18 hours. At 18 hours the OD600 was measured.

[4] = tested on: BP63 (ΔfabZ1); experiment: Growth yield (OD600) with oleic acid, fabZ1 deletion strain; format: cell-based, L. plantarum; conditions: for OD600 BP63 (ΔfabZ1): 24 hours, 30° C.
Protocol: (§1) Strain BP63 (ΔfabZ1, described in Example 4) and the parental strain BP15 (fabZ1^+, described in Example 3) were grown in semi-synthetic LAB medium, pH6, with 75 μg/ml uracil and 2.5 μg/mL hematin in the presence and absence of an unsaturated fatty acid, oleic acid. Cultures were prepared as described in General Methods.

[5] = tested on: BP15 (fabZ1^+); experiment: Growth yield (OD600) with oleic acid, parental strain; format: cell-based, L. plantarum; conditions: 24 hours, 30° C.
Protocol: as §1

[6] = tested on: BP63 (L. plantarum PN0512ΔpyrFΔfabZ1); experiment: Fatty acid supplements supporting growth of the fabZ1 mutant; format: cell-based; conditions: fatty acid supplied at 80 mg/L; overnight incubation, OD600
Protocol: With 100 or 200 mg/liter of oleic acid the growth of BP63 was equivalent to that of the fabZ1^+ control strain, BP15. […] Thus, we conclude that fabZ1 in L. plantarum has the same function as FabN in E. faecalis (Wang, H. and Cronan, J. E. 2004. Functional replacement of the FabA and FabB proteins of Escherichia coli fatty acid synthesis by Enterococcus faecalis FabZ and FabF homologs. J. Biol. Chem. 279, 34489-95). To further test the range of fatty acid supplements that support growth of the fabZ1 mutant, several other fatty acids were supplied at 80 mg/L to the semi-synthetic LAB medium as described above. BP63 and the parental control BP15 were inoculated from the working stocks. After overnight incubation, the OD600 was measured. The growth of BP15 was not inhibited by any of the fatty acids tested. The Table 9 below summarizes the results for the fabZ1 mutant strain, BP63.

Compound CC(C)CO [Isobutanol, isobutanol] has an OD600 unfed control ([1]; 2.3 % w/v isobutanol) of 0.727, an OD600 unfed control ([1]; 2.5 % w/v isobutanol) of 0.341 and an OD600 unfed control ([1]; 2.7 % w/v isobutanol) of 0.131. For the same compound, the OD600 unfed control ([1]; 2.9 % w/v isobutanol) was 0.051, the “effect of isobutanol on growth rate of fabZ1 mutant strain BP63” value ([2]; shake flask, suboptimal concentrations of oleic acid, FIG. 1) was “stimulated growth” and the “Growth (OD600) of BP63 (ΔfabZ1)” value ([3]; oleic acid 0 mg/liter, iso-butanol 1%) was 0.0383. The “Growth (OD600) of BP63 (ΔfabZ1)” value ([3]; oleic acid 0 mg/liter, iso-butanol 1.5%) was 0.0385, the “Growth (OD600) of BP63 (ΔfabZ1)” value ([3]; oleic acid 0 mg/liter, iso-butanol 2%) was 0.0402 and the “Growth (OD600) of BP63 (ΔfabZ1)” value ([3]; oleic acid 0 mg/liter, iso-butanol 2.5%) was 0.038. The “Growth (OD600) of BP63 (ΔfabZ1)” value ([3]; oleic acid 0 mg/liter, iso-butanol 3%) was 0.0351, the “Growth (OD600) of BP63 (ΔfabZ1)” value ([3]; oleic acid 10 mg/liter, iso-butanol 1%) was 0.0829 and the “Growth (OD600) of BP63 (ΔfabZ1)” value ([3]; oleic acid 10 mg/liter, iso-butanol 1.5%) was 0.0601. For the same compound, the “Growth (OD600) of BP63 (ΔfabZ1)” value ([3]; oleic acid 10 mg/liter, iso-butanol 2%) was 0.0701, the “Growth (OD600) of BP63 (ΔfabZ1)” value ([3]; oleic acid 10 mg/liter, iso-butanol 2.5%) was 0.0684 and the “Growth (OD600) of BP63 (ΔfabZ1)” value ([3]; oleic acid 10 mg/liter, iso-butanol 3%) was 0.0397. The “Growth (OD600) of BP63 (ΔfabZ1)” value ([3]; oleic acid 20 mg/liter, iso-butanol 1%) was 0.2291, the “Growth (OD600) of BP63 (ΔfabZ1)” value ([3]; oleic acid 20 mg/liter, iso-butanol 1.5%) was 0.2375 and the “Growth (OD600) of BP63 (ΔfabZ1)” value ([3]; oleic acid 20 mg/liter, iso-butanol 2%) was 0.068. For the same compound, the “Growth (OD600) of BP63 (ΔfabZ1)” value ([3]; oleic acid 20 mg/liter, iso-butanol 2.5%) was 0.0594, the “Growth (OD600) of BP63 (ΔfabZ1)” value ([3]; oleic acid 20 mg/liter, iso-butanol 3%) was 0.0399 and the “Growth (OD600) of BP63 (ΔfabZ1)” value ([3]; oleic acid 30 mg/liter, iso-butanol 1%, listed as iso-butanol) was 0.7686. The “Growth (OD600) of BP63 (ΔfabZ1)” value ([3]; oleic acid 30 mg/liter, iso-butanol 1%, listed as isobutanol) was 0.769, the “Growth (OD600) of BP63 (ΔfabZ1)” value ([3]; oleic acid 30 mg/liter, iso-butanol 1.5%, listed as iso-butanol) was 0.7137 and the “Growth (OD600) of BP63 (ΔfabZ1)” value ([3]; oleic acid 30 mg/liter, iso-butanol 1.5%, listed as isobutanol) was 0.714. The “Growth (OD600) of BP63 (ΔfabZ1)” value ([3]; oleic acid 30 mg/liter, iso-butanol 2%) was 0.402, the “Growth (OD600) of BP63 (ΔfabZ1)” value ([3]; oleic acid 30 mg/liter, iso-butanol 2.5%) was 0.1606 and the “Growth (OD600) of BP63 (ΔfabZ1)” value ([3]; oleic acid 30 mg/liter, iso-butanol 3%) was 0.0995. For the same compound, the “Growth (OD600) of BP63 (ΔfabZ1)” value ([3]; oleic acid 40 mg/liter, iso-butanol 1%) was 1.2315, the “Growth (OD600) of BP63 (ΔfabZ1)” value ([3]; oleic acid 40 mg/liter, iso-butanol 1.5%) was 0.8852 and the “Growth (OD600) of BP63 (ΔfabZ1)” value ([3]; oleic acid 40 mg/liter, iso-butanol 2%) was 0.8012. For the same compound, the “Growth (OD600) of BP63 (ΔfabZ1)” value ([3]; oleic acid 40 mg/liter, iso-butanol 2.5%) was 0.1793, the “Growth (OD600) of BP63 (ΔfabZ1)” value ([3]; oleic acid 40 mg/liter, iso-butanol 3%) was 0.1358 and the “Growth (OD600) of BP63 (ΔfabZ1)” value ([3]; oleic acid 50 mg/liter, iso-butanol 1%) was 1.2567. For the same compound, the “Growth (OD600) of BP63 (ΔfabZ1)” value ([3]; oleic acid 50 mg/liter, iso-butanol 1.5%) was 1.257, the “Growth (OD600) of BP63 (ΔfabZ1)” value ([3]; oleic acid 50 mg/liter, iso-butanol 2%) was 0.5464 and the “Growth (OD600) of BP63 (ΔfabZ1)” value ([3]; oleic acid 50 mg/liter, iso-butanol 2.5%) was 0.1654. The “Growth (OD600) of BP63 (ΔfabZ1)” value ([3]; oleic acid 50 mg/liter, iso-butanol 3%) was 0.1185 and the “effect of isobutanol on growth of the fabZ1 mutant” value ([3]; oleic acid supplied at sub-optimal levels) was “enhanced the growth”.
With CCCCCCCC/C=C\CCCCCCCC(=O)O [Oleic acid, oleic acid] the “growth of BP63 compared with fabZ1^+ control strain BP15” value ([4]; 100 or 200 mg/liter of oleic acid) was “equivalent”, the “growth of BP63” value ([4]; low concentrations of oleic acid up to 12 mg/liter) was “essentially no growth” and the “OD600 BP63 (ΔfabZ1)” value ([4]; oleic acid 1.5 mg/liter) was 0.0091. The “OD600 BP63 (ΔfabZ1)” value ([4]; oleic acid 3 mg/liter) was 0.0081, the “OD600 BP63 (ΔfabZ1)” value ([4]; oleic acid 6 mg/liter) was 0.0084 and the “OD600 BP63 (ΔfabZ1)” value ([4]; oleic acid 12 mg/liter) was 0.0234. For the same compound, the “OD600 BP63 (ΔfabZ1)” value ([4]; oleic acid 25 mg/liter) was 0.6943, the “OD600 BP63 (ΔfabZ1)” value ([4]; oleic acid 100 mg/liter) was 1.1452 and the “OD600 BP63 (ΔfabZ1)” value ([4]; oleic acid 200 mg/liter) was 1.3725. For the same compound, the “OD600 BP15 (fabZ1^+)” value ([5]; oleic acid 1.5 mg/liter) was 0.9449, the “OD600 BP15 (fabZ1^+)” value ([5]; oleic acid 3 mg/liter) was 0.8375 and the “OD600 BP15 (fabZ1^+)” value ([5]; oleic acid 6 mg/liter) was 0.9459. For the same compound, the “OD600 BP15 (fabZ1^+)” value ([5]; oleic acid 12 mg/liter) was 0.9681, the “OD600 BP15 (fabZ1^+)” value ([5]; oleic acid 25 mg/liter) was 1.0069 and the “OD600 BP15 (fabZ1^+)” value ([5]; oleic acid 100 mg/liter) was 1.0915. The “OD600 BP15 (fabZ1^+)” value ([5]; oleic acid 200 mg/liter) was 1.3187, the “Supports growth of BP63” value [6] was “YES” and the “growth rate of BP63 compared with parental strain BP15” value ([2]; 55 mg/liter oleic acid, all concentrations of isobutanol) was “essentially identical”. For the same compound, the “Growth (OD600) of BP63 (ΔfabZ1)” value ([3]; oleic acid 10 mg/liter, iso-butanol 0%) was 0.0835, the “Growth (OD600) of BP63 (ΔfabZ1)” value ([3]; oleic acid 20 mg/liter, iso-butanol 0%) was 0.1046 and the “Growth (OD600) of BP63 (ΔfabZ1)” value ([3]; oleic acid 30 mg/liter, iso-butanol 0%) was 0.153 and 0.1526. For the same compound, the “Growth (OD600) of BP63 (ΔfabZ1)” value ([3]; oleic acid 40 mg/liter, iso-butanol 0%) was 0.2976 and the “Growth (OD600) of BP63 (ΔfabZ1)” value ([3]; oleic acid 50 mg/liter, iso-butanol 0%) was 1.181.
